Test results published in patent US20240383886A1, “Protein Tyrosine Phosphatase Degraders and Methods of Use Thereof” (CALICO LIFE SCIENCES LLC, priority 2019, published 2024).

How the values were obtained:
[1] = target: T1, PTPN2 (Homo sapiens, UniProt P17706); assay: HiBiT-Degradation 293T.109 PTPN2 (Nano-Glo HiBiT Lytic Assay); format: cell-based; conditions: 293T.109 (HiBiT-PTPN2) cells, 24.0 hours
T1 construct: expressed in transfected cells; host or cells: 293T (293T.109 HiBiT-PTPN2 line; parental 293T WT from ATCC)
T1 sequence (P17706 1-415): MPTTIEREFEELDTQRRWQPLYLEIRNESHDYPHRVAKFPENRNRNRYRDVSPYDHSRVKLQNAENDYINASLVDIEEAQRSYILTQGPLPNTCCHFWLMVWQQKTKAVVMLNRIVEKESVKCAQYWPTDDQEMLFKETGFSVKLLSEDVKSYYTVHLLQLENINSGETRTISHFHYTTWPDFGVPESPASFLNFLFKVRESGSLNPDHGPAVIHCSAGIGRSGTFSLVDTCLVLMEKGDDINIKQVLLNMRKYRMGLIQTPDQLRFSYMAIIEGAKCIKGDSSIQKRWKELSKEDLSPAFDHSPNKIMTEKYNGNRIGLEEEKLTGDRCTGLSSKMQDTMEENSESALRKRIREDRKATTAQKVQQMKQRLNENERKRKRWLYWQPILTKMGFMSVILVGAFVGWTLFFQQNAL
How it was run: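 293T cells ectopically expressing N-terminally HiBiT-tagged PTPN2 were seeded at 5000 cells/well. They were treated with an 11-point half-log titration from 10 μM, in duplicate, for 24 hours at 37° C., 5% CO2. Remaining tagged PTPN2 was quantified by lytic HiBiT luminescence against untreated and no-reagent controls.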

[2] = test system: PTPN2; assay: HiBiT-Degradation B16F10.4 PTPN2; format: cell-based; conditions: B16F10.4 cells, 24.0 hours

| Structure (SMILES) | DC50 [1] [nM] | DC50 [2] [nM] |
| --- | --- | --- |
| C[C@@H]1CC(c2ccc3c(c2)n(C)c(=O)n3C2CCC(=O)NC2=O)CCN1CC(=O)Nc1ccc2c(F)c(N3CC(=O)NS3(=O)=O)c(O)cc2c1 (stereo partly drawn) [Example 178, N-(6-(1,1-dioxido-4-oxo-1,2,5-thiadiazolidin-2-yl)-5-fluoro-7-hydroxynaphthalen-2-yl)-2-((2R)-4-(1-(2,6-dioxopiperidin-3-yl)-3-methyl-2-oxo-2,3-dihydro-1H-benzo[d]imidazol-5-yl)-2-methylpiperidin-1-yl)acetamide] | 10 to 50 | 50 to 200 |
| Cn1c(=O)n(C2CCC(=O)NC2=O)c2ccc(N3CCC(CCNC(=O)Nc4ccc5c(F)c(N6CC(=O)NS6(=O)=O)c(O)cc5c4)CC3)cc21 (stereo not shown) [Example 181] | 10 to 50 | 50 to 200 |
| Cn1c(=O)n(C2CCC(=O)NC2=O)c2ccc(C3CCN([C@H](CO)C(=O)Nc4ccc5c(F)c(N6CC(=O)NS6(=O)=O)c(O)cc5c4)CC3)cc21 (stereo partly drawn) [Example 183, (2R)—N-(6-(1,1-dioxido-4-oxo-1,2,5-thiadiazolidin-2-yl)-5-fluoro-7-hydroxynaphthalen-2-yl)-2-(4-(1-(2,6-dioxopiperidin-3-yl)-3-methyl-2-oxo-2,3-dihydro-1H-benzo[d]imidazol-5-yl)piperidin-1-yl)-3-hydroxypropanamide] | 10 to 50 | 10 to 50 |
| Cn1c(=O)n(C2CCC(=O)NC2=O)c2ccc(C3CCN([C@@H](CO)C(=O)Nc4ccc5c(F)c(N6CC(=O)NS6(=O)=O)c(O)cc5c4)CC3)cc21 (stereo partly drawn) [Example 184, (2S)—N-(6-(1,1-dioxido-4-oxo-1,2,5-thiadiazolidin-2-yl)-5-fluoro-7-hydroxynaphthalen-2-yl)-2-(4-(1-(2,6-dioxopiperidin-3-yl)-3-methyl-2-oxo-2,3-dihydro-1H-benzo[d]imidazol-5-yl)piperidin-1-yl)-3-hydroxypropanamide] | 10 to 50 | 50 to 200 |

Other lines, results leading:

| DC50 [1] [nM] | DC50 [2] [nM] | Structure (SMILES) |
| --- | --- | --- |
| 10 to 50 | 50 to 200 | Cn1nc(C2CCC(=O)NC2=O)c2ccc(-c3ccc(CC(=O)Nc4ccc5c(F)c(N6CC(=O)NS6(=O)=O)c(O)cc5c4)cc3)cc21 (stereo not shown) [Example 177, N-(6-(1,1-dioxido-4-oxo-1,2,5-thiadiazolidin-2-yl)-5-fluoro-7-hydroxynaphthalen-2-yl)-2-(4-(3-(2,6-dioxopiperidin-3-yl)-1-methyl-1H-indazol-6-yl)phenyl)acetamide] |
| 10 to 50 | 50 to 200 | Cn1nc(C2CCC(=O)NC2=O)c2ccc([C@H]3CC[C@@H](CC(=O)Nc4ccc5c(F)c(N6CC(=O)NS6(=O)=O)c(O)cc5c4)CC3)cc21 (stereo partly drawn) [Example 180, N-(6-(1,1-dioxido-4-oxo-1,2,5-thiadiazolidin-2-yl)-5-fluoro-7-hydroxynaphthalen-2-yl)-2-((cis)-4-(3-(2,6-dioxopiperidin-3-yl)-1-methyl-1H-indazol-6-yl)cyclohexyl)acetamide] |
| 10 to 50 | 10 to 50 | Cn1c(=O)n(C2CCC(=O)NC2=O)c2ccc(C3CCN(CC(=O)Nc4ccc5c(F)c(N6CC(=O)NS6(=O)=O)c(O)cc5c4)CC3F)cc21 (stereo not shown) [Example 182, 2-[4-[1-(2,6-dioxo-3-piperidyl)-3-methyl-2-oxo-benzimidazol-5-yl]-3-fluoro-1-piperidyl]-N-[5-fluoro-7-hydroxy-6-(1,1,4-trioxo-1,2,5-thiadiazolidin-2-yl)-2-naphthyl]acetamide] |
| 10 to 50 | 50 to 200 | Cc1cc(CC(=O)Nc2ccc3c(F)c(N4CC(=O)NS4(=O)=O)c(O)cc3c2)ccc1Nc1ccc2c(C3CCC(=O)NC3=O)nn(C)c2c1 (stereo not shown) [Example 185, N-(6-(1,1-dioxido-4-oxo-1,2,5-thiadiazolidin-2-yl)-5-fluoro-7-hydroxynaphthalen-2-yl)-2-(4-((3-(2,6-dioxopiperidin-3-yl)-1-methyl-1H-indazol-6-yl)amino)-3-methylphenyl)acetamide] |
